Measurements as given in US8685970B2, “Quinolines and related analogs as sirtuin modulators” (GlaxoSmithKline, LLC, priority 2008, dated 2014).

Target: T1, SIRT1 (Homo sapiens, UniProt Q96EB6)
T1 sequence (Q96EB6 1-747): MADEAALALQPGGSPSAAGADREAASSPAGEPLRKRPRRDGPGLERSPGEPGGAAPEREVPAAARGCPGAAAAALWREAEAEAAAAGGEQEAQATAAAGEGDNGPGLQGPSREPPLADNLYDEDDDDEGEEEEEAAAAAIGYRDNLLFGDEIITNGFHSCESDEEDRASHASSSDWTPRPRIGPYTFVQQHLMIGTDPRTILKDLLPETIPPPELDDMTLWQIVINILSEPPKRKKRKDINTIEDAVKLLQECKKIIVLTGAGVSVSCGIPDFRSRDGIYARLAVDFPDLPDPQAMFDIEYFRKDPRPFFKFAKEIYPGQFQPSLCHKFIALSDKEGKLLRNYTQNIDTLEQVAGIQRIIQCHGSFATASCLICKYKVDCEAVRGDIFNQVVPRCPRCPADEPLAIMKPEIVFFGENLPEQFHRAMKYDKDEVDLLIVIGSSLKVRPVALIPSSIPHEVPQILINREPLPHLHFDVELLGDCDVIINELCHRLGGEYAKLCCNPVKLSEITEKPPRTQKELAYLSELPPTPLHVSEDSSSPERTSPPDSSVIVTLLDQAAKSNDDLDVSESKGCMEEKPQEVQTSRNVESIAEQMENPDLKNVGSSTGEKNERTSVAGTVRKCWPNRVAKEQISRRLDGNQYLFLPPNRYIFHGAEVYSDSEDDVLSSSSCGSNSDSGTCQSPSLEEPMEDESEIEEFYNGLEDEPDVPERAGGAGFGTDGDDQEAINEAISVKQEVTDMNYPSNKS
Assay: Mass spectrometry based SIRT1 deacetylation assay (activation)
Assay type: biochemical
Settings: 10 nM SIRT1, 0.5 μM peptide substrate, 120 μM βNAD+, 25 min at 25° C.
Summary of the method: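 Activation reported as EC1.5, the compound concentration producing 150% of DMSO-control deacetylation, plus maximum fold activation. Readout is mass-spectrometric ratio of deacetylated to acetylated p53-based peptide (0.5 μM) after 25 min, 25 °C, with 120 μM βNAD+ and 10 nM His-tagged human SIRT1, pH 8.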

EC1.5 (concentration of test compound that results in 150% activation of SIRT1) | % Fold Act. (percent maximum fold activation) | Structure (SMILES)
C (EC1.5>25 uM) | – | O=C(Nc1cccc2ccc(-c3cccc(OC(F)(F)F)c3)nc12)c1cnc2ccccc2n1 [Compound 23]
B (EC1.5 1-25 uM) | B (Fold Activation <200%) | CS(=O)(=O)c1ccc(-c2ccc3cccc(NC(=O)c4cscn4)c3n2)cc1 [Compound 106]
A (EC1.5<1.0 uM) | A (Fold activation >200%) | O=C(Nc1cccc(OCC(O)CO)c1)c1cccc2ccc(-c3cccc(OC(F)(F)F)c3)nc12 (stereo not drawn) [Compound 152]
C (EC1.5>25 uM) | – | O=C(Nc1cccc2ccc(-c3cncc(F)c3)nc12)c1cscn1 [Compound 199]
C (EC1.5>25 uM) | – | O=C(Nc1nc(-c2ccccc2)cs1)c1cccc2ccc(-c3cccc(C(F)(F)F)c3)nc12 [Compound 54]
A (EC1.5<1.0 uM) | A (Fold activation >200%) | O=C(Nc1ccc(CN2CCOCC2)nc1)c1cccc2ccc(-c3cccc(C(F)(F)F)c3)nc12 [Compound 291]
B (EC1.5 1-25 uM) | A (Fold activation >200%) | Cn1cnc(C(=O)Nc2cccc3ccc(-c4cccnc4)nc23)c1 [Compound 294]
C (EC1.5>25 uM) | – | O=C(Nc1cccnc1)c1cccc2cnc(-c3cccc(C(F)(F)F)c3)nc12 [Compound 282]
B (EC1.5 1-25 uM) | A (Fold activation >200%) | Cc1cccc(NC(=O)c2cccc3ccc(-c4cccnc4)nc23)n1 [Compound 249]
C (EC1.5>25 uM) | – | O=C(Nc1cccc2ccc(-c3cccc(OC(F)(F)F)c3)nc12)c1cccc(F)c1 [Compound 21]
C (EC1.5>25 uM) | B (Fold Activation <200%) | O=C(Nc1ccccc1)c1cccc2ccc(-c3ccccc3)nc12 [Compound 9]
C (EC1.5>25 uM) | – | O=C(Nc1nccs1)c1cccc2ncc(-c3cccc(OC(F)(F)F)c3)nc12 [Compound 125]
C (EC1.5>25 uM) | – | FC(F)(F)c1cccc(-c2ccc3cccc(NCc4nccs4)c3n2)c1 [Compound 137]
A (EC1.5<1.0 uM) | A (Fold activation >200%) | O=C(Nc1ncnc2ccc(-c3cccc(OC(F)(F)F)c3)nc12)c1ccccn1 [Compound 194]
C (EC1.5>25 uM) | – | Cc1cc(-c2ccc3cccc(C(=O)Nc4cccnc4)c3n2)no1 [Compound 68]
A (EC1.5<1.0 uM) | B (Fold Activation <200%) | O=C(Nc1ccncn1)c1cccc2ncc(-c3cccc(C(F)(F)F)c3)nc12 [Compound 130]
B (EC1.5 1-25 uM) | B (Fold Activation <200%) | O=C(Nc1nccs1)c1cccc2cnc(-c3cccc(N4CCOCC4)c3)nc12 [Compound 299]
C (EC1.5>25 uM) | – | O=C(Nc1cccc2ccc(-c3cc(F)cc(C(F)(F)F)c3)nc12)c1cnccn1 [Compound 156]

EC1.5 (concentration of test compound that results in 150% activation of SIRT1) | % Fold Act. (percent maximum fold activation) | Structure (SMILES)
A (EC1.5<1.0 uM) | A (Fold activation >200%) | O=C(Nc1ccc(OCC(O)CO)cc1)c1cccc2ccc(-c3cccc(OC(F)(F)F)c3)nc12 (stereo not drawn) [Compound 150]
C (EC1.5>25 uM) | – | Fc1cc(-c2ccc3cccc(NCc4cccnc4)c3n2)cc(C(F)(F)F)c1 [Compound 168]
C (EC1.5>25 uM) | – | O=C(Nc1cccc2ccc(-c3ccc(F)c(C(F)(F)F)c3)nc12)c1cnccn1 [Compound 157]
A (EC1.5<1.0 uM) | A (Fold activation >200%) | O=C(Nc1nc(CN2CCOCC2)cs1)c1cccc2ccc(-c3cccc(OC(F)(F)F)c3)nc12 [Compound 178]
A (EC1.5<1.0 uM) | A (Fold activation >200%) | O=C(Nc1ccc(CN2CCCC2)nc1)c1cccc2ccc(-c3cccc(C(F)F)c3)nc12 [Compound 290]
B (EC1.5 1-25 uM) | B (Fold Activation <200%) | Cc1ccc(-c2ccc3cccc(NC(=O)c4cscn4)c3n2)cc1 [Compound 212]
C (EC1.5>25 uM) | – | O=C(Nc1cccnc1)c1cccc2ccc(-c3cccnc3)nc12 [Compound 183]
A (EC1.5<1.0 uM) | A (Fold activation >200%) | O=C(Nc1cccc2ccc(-c3cccc(CN4CCNCC4)c3)nc12)c1cscn1 [Compound 121]
C (EC1.5>25 uM) | B (Fold Activation <200%) | O=C(N[C@H]1CCNC1)c1cccc2ccc(-c3cccc(C(F)(F)F)c3)nc12 [Compound 72]
C (EC1.5>25 uM) | – | Cc1noc(C)c1NC(=O)c1cccc2ccc(-c3cccc(C(F)(F)F)c3)nc12 [Compound 50]
A (EC1.5<1.0 uM) | B (Fold Activation <200%) | CN(C)c1cccc(C(=O)Nc2cccc3ccc(-c4cccc(C(F)(F)F)c4)nc23)c1 [Compound 215]
B (EC1.5 1-25 uM) | B (Fold Activation <200%) | O=C(NC1CCOCC1)c1cccc2ccc(-c3cccc(C(F)(F)F)c3)nc12 [Compound 39]
C (EC1.5>25 uM) | – | O=S(=O)(Nc1cccnc1)Nc1cccc2ccc(-c3cccc(OC(F)(F)F)c3)nc12 [Compound 114]
A (EC1.5<1.0 uM) | B (Fold Activation <200%) | O=C(Nc1cccc2ccc(-c3cccnc3)nc12)c1cnccn1 [Compound 142]
A (EC1.5<1.0 uM) | B (Fold Activation <200%) | Cc1cccc(-c2ccc3cccc(NC(=O)c4cscn4)c3n2)c1 [Compound 79]
C (EC1.5>25 uM) | – | O=C(Nc1cccc2ccc(-c3cc(F)cc(C(F)(F)F)c3)nc12)c1ccccc1 [Compound 153]
A (EC1.5<1.0 uM) | A (Fold activation >200%) | O=C(Nc1cnccn1)c1cccc2ccc(-c3cccc(OC(F)(F)F)c3)nc12 [Compound 17]
A (EC1.5<1.0 uM) | A (Fold activation >200%) | Cc1cc(NC(=O)c2cccc3ccc(-c4cccc(N5CCOCC5)c4)nc23)sn1 [Compound 253]
